Results: patent US20260209183A1, “HETEROCYCLIC COMPOUNDS AND USES THEREOF” (CERTA THERAPEUTICS PTY LTD, priority 2022, published 2026)

molecular target: T1, human GPR68 (Homo sapiens, UniProt Q15743); assay: GPR68 cAMP GloSensor assay; assay type: cell-based; conditions: HEK293T cells transiently transfected with GPR68 and GloSensor-22F cAMP reporter; activation at pH 6.0; 10 μM top, 3-fold, 10 points, in duplicate
T1 construct: host or cells: HEK293T
From the text: The assay was developed to provide a quick screen assay to determine the potency and EC50s/IC50s of compounds against the GPR68 receptor with transient transfection cell.
GPR68 senses extracellular pH.
To determine the compound activity in GPR68 inhibition, an GPR68 dependent cAMP assay was developed and validated. Principle of this method: Expression of GPR68 in HEK293T cells by transient transfection of a GPR68-expression vector and a cAMP-sensing reporter vector (GloSensor, Promega). The transfected cells as a pool will be re-plated uniformly in assay plates, to minimize the in-experiment variation. The GPR68 receptor signal will be measured via Gs to CAMP increase as indicated by the Luc activation under basal (pH8.4 or pH7.4) or activated (pH6.5 or pH6.0) states.
• GloSensor™ CAMP Reagent (Promega, Cat #E1291) • human GPR68 NM_001177676.2_pcDNA3.1 (+)(Genscript) • The GloSensor™-22F CAMP Reporter Vector (Promega, Cat #E2301) • DMEM (Gibco, Cat #11995065) • FBS, Qualified, New Zealand origin (Gibco, Cat #10091148) • Penicillin-Streptomycin (Gibco, Cat #15140122) • 0.25% Trypsin-EDTA (Gibco, Cat #25200056) • PBS (Gibco, Cat #10010049) • 1x HBSS (Gibco, Cat #14175079) • HEPES (Gibco, Cat #15630080) • MES (Sigma, Cat #M2933-25G) • TAPS (Sigma, Cat #T5316-25G) • NaOH (Sigma, Cat #221465) • BSA (Sigma, Cat #B2064-50G) • Opti-MEM (Gibco, Cat #31985070) • DMSO (Sigma, Cat #D5879-1L) • FuGene HD Transfection Reagent (Promega, Cat #E2311)
• 1) Detached cells with 0.25% Trypsin when the cell confluence was about 80%. • 2)Resuspended the detached cells in 3 ml fresh cell culture medium. Counted the cell number and diluted the cells to proper density. • 3) Seeded 1.5∧10∧6 cells into 6-well plate (Cat. #3516) in 2 ml per well contained the need to transfection well so that the cells were 80-85% confluent at the time of transfection. • 4) Incubated the cells at 37° C. in a CO2 incubator for 6 hours.
• 5) Gently aspirated off the DMEM medium. Then added the Opti-MEM® Medium without serum into 6-well plate. • 6) Added 2.5 μg GPR68 and 2.5 μg GloSensor-22F in 1:1 ratio and 12 μl FuGeneHD into 120 μl of Opti-MEM® Medium without serum. Mixed gently and incubated for 15 min at room temperature. • 7) After the 15-minute incubation, added 137 μl of DNA-Transfection Reagent complexes to each well containing cells and medium. Mixed gently by rocking the plate back and forth. • 8) Incubated the cells at 37° C. in a co2 incubator for 19 h until they were ready to assay for transgene expression.
Seeded 40000 cells/well, 100 μl/well in 96-well plate (Cat. #3610) with complete DMEM medium; incubated overnight.
• 1) Compounds were solubilized in 100% DMSO to a concentration of 50 mM. • 2) Prepared compound DMSO solutions in 384 LDV echo plate: top concentration was 10 mM, 3-fold, 10 dose-response, so intermediate concentrations were created by serially diluting by […] beginning from the 10000 μM. 5 μL tested intermediate compounds+10 μl DMSO solutions were transferred to 384 LDV echo plate. Centrifuged the echo plate at 1000 rpm for 30s before Echo procedure. Compounds were transferred 180 nL volume by Echo550 to a 96-assay plate (corning, Cat #3599), to make compound 10 concentration points in duplicate (the final top concentration was 10 μM, 3-fold, 10 dose-response, in duplicate). Final DMSO concentration is 0.1%. • 3) For the Low control wells and High control wells, 180 nL DMSO were transferred by ECHO. • 4) Layout of assay plate 180 nL/well of compounds in 100% DMSO 180 nL/well DMSO in Low control wells and High control wells was as shown below. Compounds were prepared into assay plate at […] in 100% DMSO, the assay volume was […], and final DMSO concentration was 0.1%.
• 1)Removed culture medium, added 100 μL/well GloSensor (50×) to cells, then incubated for 2 h at room temperature.
• 2) Pre-read Luminescence at −5 min for background after 2 h incubation.

T1 sequence (Q15743 whole entry): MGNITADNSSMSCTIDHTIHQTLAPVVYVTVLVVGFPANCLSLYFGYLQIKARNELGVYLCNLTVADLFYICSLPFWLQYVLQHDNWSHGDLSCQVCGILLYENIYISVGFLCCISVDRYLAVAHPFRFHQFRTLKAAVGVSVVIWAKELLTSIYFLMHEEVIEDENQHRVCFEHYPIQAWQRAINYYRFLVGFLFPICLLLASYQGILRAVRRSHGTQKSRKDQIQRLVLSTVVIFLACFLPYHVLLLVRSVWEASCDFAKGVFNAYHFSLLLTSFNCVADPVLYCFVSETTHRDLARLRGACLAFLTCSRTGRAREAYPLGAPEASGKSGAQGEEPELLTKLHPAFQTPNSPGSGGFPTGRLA

Structure (SMILES)	IC50 [µM]
O=C(O)c1nn(C(=O)/C=C/c2ccc3c(cnn3CC3CC3)c2)c2ccccc12 [Compound 15]	6.68
O=C(/C=C/c1ccc2c(cnn2CC2CC2)c1)Nc1ccccc1NS(=O)(=O)CC(F)(F)F [Compound 12, (E)-3-(1-(cyclopropylmethyl)-1H-indazol-5-yl)-N-(2-((2,2,2-trifluoroethyl)sulfonamido)phenyl)acrylamide]	4.49
O=C(/C=C/c1ccc2c(cnn2CC2CC2)c1)NC1C2CC3CC(C2)CC1C3 (centres unmarked) [Compound 19]	9.7
O=C(/C=C/c1ccc2c(cnn2CC2CC2)c1)Nc1cccc(C(=O)O)n1 [Compound 10, (E)-6-(3-(1-(cyclopropylmethyl)-1H-indazol-5-yl)acrylamido)picolinic acid]	3.82
O=C(/C=C/c1ccc2c(cnn2CC2CC2)c1)Nc1c(F)cccc1C(=O)O [Compound 36]	11.5
O=C(/C=C/c1ccc2c(cnn2CC2CC2)c1)Nc1ccccc1-c1n[nH]c(=O)o1 [Compound 14, (E)-3-(1-(cyclopropylmethyl)-1H-indazol-5-yl)-N-(2-(5-oxo-4,5-dihydro-1,3,4-oxadiazol-2-yl)phenyl)acrylamide]	5.72
O=C(/C=C/c1ccc2c(cnn2CC2CC2)c1)Nc1ccc(F)cc1C(=O)O [Compound 55]	8.6
O=C(/C=C/c1ccc2c(cnn2CC2CC2)c1)Nc1ccccc1-c1nnn[nH]1 [Compound 16, (E)-N-(2-(1H-tetrazol-5-yl)phenyl)-3-(1-(cyclopropylmethyl)-1H-indazol-5-yl)acrylamide]	6.9
Cn1ncc2cc(/C=C/C(=O)Nc3ccccc3)ccc21 [Compound 11, (E)-3-(1-methyl-1H-indazol-5-yl)-N-phenylacrylamide]	3.83
O=C(/C=C/c1ccc2c(cnn2CC2CC2)c1)Nc1ccc(F)cn1 [Compound 25]	14.9
NS(=O)(=O)c1ccccc1NC(=O)/C=C/c1ccc2c(cnn2CC2CC2)c1 [Compound 18, (E)-3-(1-(cyclopropylmethyl)-1H-indazol-5-yl)-N-(2-sulfamoylphenyl)acrylamide]	7.39
O=C(/C=C/c1ccc2c(cnn2CC2CC2)c1)Nc1ccccc1-c1noc(=O)[nH]1 [Compound 13, (E)-3-(1-(cyclopropylmethyl)-1H-indazol-5-yl)-N-(2-(5-oxo-4,5-dihydro-1,2,4-oxadiazol-3-yl)phenyl)acrylamide]	4.81
Cn1ncc2cc(/C=C/C(=O)Nc3ccccn3)ccc21 [Compound 9, (E)-3-(1-methyl-1H-indazol-5-yl)-N-(pyridin-2-yl)acrylamide]	3.46
CN(C)S(=O)(=O)NC(=O)c1ccccc1NC(=O)/C=C/c1ccc2c(cnn2CC2CC2)c1 [Compound 17]	7.02
O=C(/C=C/c1ccc2c(cnn2CC2CC2)c1)Nc1ncccc1F [Compound 23]	17
O=C(/C=C/c1ccc2c(cnn2CC2CC2)c1)Nc1cc(F)ccc1C(=O)O [Compound 56]	3.52

Stronger by IC50, values ahead:

IC50 [µM]	Structure (SMILES)
1.29	O=C(/C=C/c1cc2cnn(CC3CC3)c2cc1F)Nc1ccccc1C(=O)O [Compound 4, (E)-2-(3-(1-(cyclopropylmethyl)-6-fluoro-1H-indazol-5-yl)acrylamido)benzoic acid]
1.68	O=C(/C=C/c1ccc2c(cnn2CC2CC2)c1)Nc1ccccc1C(=O)O [Compound 6, (E)-2-(3-(1-(cyclopropylmethyl)-1H-indazol-5-yl)acrylamido)benzoic acid]
0.593	O=C(/C=C/c1ccc2c(cnn2CC2CC2)c1)Nc1sccc1C(=O)O [Compound 1]
2.02	O=C(/C=C/c1ccc2c(cnn2CC2CC2)c1)Nc1cccnc1C(=O)O [Compound 7, (E)-3-(3-(1-(cyclopropylmethyl)-1H-indazol-5-yl)acrylamido)picolinic acid]
2.08	O=C(/C=C/c1ccc2c(cnn2CC2CC2)c1)Nc1ccccc1 [Compound 8, (E)-3-(1-(cyclopropylmethyl)-1H-indazol-5-yl)-N-phenylacrylamide]
1.41	O=C(/C=C/c1ccc2c(cnn2CC2CC2)c1)Nc1ccccn1 [Compound 5, (E)-3-(1-(cyclopropylmethyl)-1H-indazol-5-yl)-N-(pyridin-2-yl)acrylamide]
0.861	O=C(/C=C/c1ccc2c(cnn2CC2CC2)c1)Nc1ccccc1F [Compound 2, (E)-3-(1-(cyclopropylmethyl)-1H-indazol-5-yl)-N-(2-fluorophenyl)acrylamide]
